Measurements reported in ChEMBL document CHEMBL3616425, “Factors influencing the cytotoxicity of α-methylene-γ-hydroxy esters against pancreatic cancer” (2015).

Legend:
Type in all cases: functional
[1] = Cytotoxicity against human PANC1 cells assessed as cell growth at 10 uM after 72 hrs by Cell Titer 96 cell proliferation assay relative to control; conditions: PANC-1, 72 h, read-out: Activity
[2] = Cytotoxicity against human MIAPaCa2 cells assessed as cell growth at 10 uM after 72 hrs by Cell Titer 96 cell proliferation assay relative to control; conditions: MIA PaCa-2, 72 h, read-out: Activity
[3] = Cytotoxicity against human BxPC3 cells assessed as cell growth at 10 uM after 72 hrs by Cell Titer 96 cell proliferation assay relative to control; conditions: BXPC-3, 72 h, read-out: Activity

Compound | growth at 10 µM [1] | growth at 10 µM [2] | growth at 10 µM [3]
C=C(C(=O)OC)C(C)CO (stereo not given) | 120% | 124% | 126%
C=C(C(=O)OC)C(O)c1ccc(C(F)(F)F)cc1 (stereo not given) | 93% | 27% | 69%
C=C(C(=O)O)C(O)c1ccc(C#N)cc1 (stereo not given) | 108% | 92% | 114%
C=C(C(=O)OC)C(O)c1ccccc1 (stereo not given) | 118% | 119% | 129%
C=C(C(=O)O)C(O)c1ccc(C(F)(F)F)cc1 (stereo not given) | 129% | 119% | 121%
C=C1C(=O)O[C@@H]2C3O[C@]3(C)CC/C=C(\C)CC[C@@H]12 (stereo not given in full) | 22% | 11% | 12%
C=C(C(C)=O)[C@@H](c1ccccc1)[C@H](O)c1ccccc1 (relative stereo) | 105% | 53% | 104%
C=C(C(=O)OC)[C@@H](c1ccccc1)[C@H](O[Si](C)(C)C(C)(C)C)c1ccccc1 (relative stereo) | 135% | 110% | 117%
C=C(C[C@@H](c1ccccc1)[C@H](O)c1ccccc1)C(=O)OC (relative stereo) | 124% | 59% | 129%
C=C(C(=O)OC)[C@@H](c1ccccc1)[C@H](OC)c1ccccc1 (relative stereo) | 123% | 102% | 94%
C=C(C(=O)OC)C(CO)c1ccccc1 (stereo not given) | 102% | 29% | 60%
C=C(C(=O)OC)C(O)c1c(F)c(F)c(F)c(F)c1F (stereo not given) | 147% | 111% | 117%
C=C1C(=O)OC1c1ccc([N+](=O)[O-])cc1 (stereo not given) | 136% | 123% | 133%
C=C(C(=O)OCC)[C@@H](c1ccccc1)[C@H](O)c1ccccc1 (relative stereo) | 5% | 13% | 3%
C=C(C(=O)O)C(O)c1ccc(OC)cc1 (stereo not given) | 125% | 106% | 110%
C=C(C(=O)OC)C(O)c1ccc(F)cc1 (stereo not given) | 136% | 118% | 137%
C=C(C(=O)OC)[C@@H](C1CCCCC1)[C@@H](C)O (relative stereo) | 145% | 77% | 120%
C=C(C(=O)Oc1ccccc1)[C@@H](c1ccccc1)[C@H](O)c1ccccc1 (relative stereo) | 9% | 8% | 1%
C=C(C(=O)OC)[C@@H](CCC)[C@H](O)c1ccccc1 (relative stereo) | 104% | 32% | 38%
C=C(C(=O)OC)C(O)c1ccccc1C(F)(F)F (stereo not given) | 169% | 127% | 142%

Compound | growth at 10 µM [1] | growth at 10 µM [2] | growth at 10 µM [3]
C=C(C(=O)OC)C(O)c1ccc([N+](=O)[O-])cc1 (stereo not given) | 138% | 98% | 123%
C=C(C(=O)OCC)C(O)c1ccc(OC)cc1 (stereo not given) | 108% | 110% | 130%
O=C1O[C@H](c2ccccc2)[C@H](c2ccccc2)/C1=C\c1ccccc1 (relative stereo) | 105% | 87% | 117%
C=C(C(=O)OC)[C@@H](c1ccccc1)[C@H](O)c1ccccc1 (relative stereo) | 14% | 9% | 2%
C=C(C(=O)OCc1ccccc1)[C@@H](c1ccccc1)[C@H](O)c1ccccc1 (relative stereo) | 6% | 12% | 2%
C=C1C(=O)O[C@H](c2ccccc2)[C@@H]1c1ccccc1 (relative stereo) | 12% | 9% | 3%
C=C1C(=O)OC1c1ccc(C#N)cc1 (stereo not given) | 102% | 99% | 116%
C=C(CC(O)c1ccccc1)C(=O)OC (stereo not given) | 67% | 14% | 1%
C=C(C(=O)OC)[C@@H](C)[C@H](O)c1ccccc1 (relative stereo) | 91% | 32% | 49%
C=C(C(=O)OC)[C@@H](c1ccccc1)[C@H](O)CCC (relative stereo) | 33% | 16% | 8%
C=C(C(=O)O)C(O)c1ccccc1 (stereo not given) | 127% | 94% | 110%
C=C(C(=O)OC)[C@@H](c1ccccc1)[C@@H](C)O (relative stereo) | 96% | 24% | 27%
C=C(C(=O)OC)C(CO)C1CCCCC1 (stereo not given) | 164% | 98% | 86%
C=C(C(=O)OC)[C@@H](C)[C@@H](C)O (relative stereo) | 110% | 147% | 122%
C=C(C(=O)OC)[C@@H](c1ccccc1)[C@H](O)Cc1ccccc1 (relative stereo) | 14% | 16% | 6%
C=C(C(=O)OC)[C@@H](c1ccccc1)[C@H](O)C1CCCCC1 (relative stereo) | 83% | 29% | 23%
C=C(C(=O)OC)C(O)c1ccccc1F (stereo not given) | 157% | 128% | 137%
C=C(C(=O)OC)C(O)c1cccc(F)c1 (stereo not given) | 166% | 129% | 134%
C=C(C(=O)OC)C(O)c1ccc(C#N)cc1 (stereo not given) | 131% | 94% | 126%
C=C(C(=O)O)C(O)c1ccc([N+](=O)[O-])cc1 (stereo not given) | 134% | 130% | 124%
